Like-named read-outs stand apart in the source and are kept apart here.
Columns and labels:
red blood cells = experiment: Red blood cell lysis assay; assay type: cell-based, sheep; conditions: 2 h, normalized to max lysis by triton-x
Experimental: Hemolysis assays were performed with defibrinated sheep's blood (Lampire, Cat #7239001). Blood was washed three times with PBS then resuspended to about 50% hematocrit in PBS. A two-fold dilution series of the compounds in 200 μL PBS with equal DMSO concentration across the series, then red blood cells were added with a final concentration of 2% hematocrit. Cells were incubated at RT for 2 hours in a v-bottom microtiter plate, then plates were spun down and supernatant was transferred to a flat bottom microtiter plate for absorbance measurement at 570 nm. Compounds were tested in technical triplicate in at least two independent assays performed on different days.

S. aureus = experiment: Antibacterial MIC; assay type: cell-based; conditions: Staphylococcus aureus; strain Newman
[1] = tested on: C. albicans SC5314 biofilms; experiment: Biofilm phase antifungal activity assay (XTT reduction); assay type: cell-based, Candida albicans
Experimental: (§1) These assays were performed as previously described (Mao et al., 2020; Ramage et al., 2001). C. albicans and C. auris, overnight cultures were washed in sterile PBS and adjusted to 1×10^6 CFU/mL in RPMI+MOPS pH 7. 100 μL cells were added to each well and incubated at 37° C. for 24 hours. A two-fold dilution series of the compounds was prepared in RPMI+MOPS with equal vehicle concentrations. Media was removed and biofilms were gently washed with PBS, then 200 μL of each drug dilution was added to wells and plates were incubated at 37° C. for an additional 24 hours. Media was removed and biofilms were gently washed with PBS, then 100 μL of XTT solution (0.83 mg/mL XTT sodium salt [Sigma, Cat #X4626]+32 μg/mL PMS [Sigma, Cat #P9625] in PBS) was added to each well. Plates were incubated at 37° C. for 30 minutes, then the absorbance was measured at 490 nm.
(§2) The metabolic activity of the biofilms was then assayed using the standard XXT reduction assay (Ramage et al., 2001). […] The biofilm activity of compound A was reduced by 4-fold relative to planktonic growth (MIC 4 μg/mL, Table 2).

HepG2 cells = experiment: Mammalian cell culture toxicity assay (LDH release and XTT); assay type: cell-based, human
Experimental: HepG2 cells (ATCC, #) were maintained and cultured in HepG2 media (DMEM (Gibco, Cat #11965-092) with 5% FBS, 20 mM Glutamine, and Penicillin/Streptomycin) at 37° C. with 5% CO2. Cells were seeded in 96-well plates at a density of 1.25×10^4 cells/well and incubated overnight at 37° C. with 5% CO2, then media was removed and replaced with media containing a two-fold dilution series of compounds with equal DMSO concentrations across all wells including no compound controls. Cells were incubated for an additional 24 hours. Supernatant was removed and used to quantify lactate dehydrogenase release using the CyQuant LDH assay kit (Invitrogen, Cat #C20300) following the manufacturer's directions. LDH signal was normalized to a max lysis control. The remaining cells were then used to quantify cellular metabolism by XTT. Briefly, cells were washed, then 0.9 mg/mL XTT (Sigma, CAT #X4626)+320 μg/mL PMS ([…] methosulfate; Sigma, Cat #P9625) in HepG2 media was added to each well. Plates were incubated at 37° C., with 5% CO2 for 2 hours, then absorbance was measured at 490 nm.

C. auris = experiment: Planktonic MIC, CLSI guidelines; assay type: cell-based, Candida auris; conditions: Candidozyma auris
Experimental: (§3) Minimum inhibitory concentrations were determined using CLSI guidelines (Beattie & Krysan, 2021; Wiederhold, 2021). All yeasts were cultured overnight in 3 mL YPD at 30° C., then washed twice in sterile PBS. Two-fold serial dilutions of each compound were prepared in RMPI+MOPS pH 7 (Gibco RPMI 1640 with L-glutamine [11875-093] and 0.165M 352 MOPS), then 1×10^3 cells were added per well. Plates were incubated at 37° C. for 24 hours (C. albicans and S. cerevisiae) or 72 hours (C. neoformans). For A. fumigatus and F. oxysporum wells were inoculated with 1.25×10^4 conidia. Plates were incubated at 37° C. for 48 hours for A. fumigatus and 72 hours for F. oxysporum. All MICs are defined as the well with complete growth inhibition as determined by visual inspection with the exception of MICs of fluconazole against C. albicans where the MIC is defined as at least 50% reduction in growth compared to the control.

C. auris 0381 biofilms = experiment: Biofilm phase antifungal activity assay (XTT reduction); assay type: cell-based, Candida auris
Experimental: as §1, §2

C. albicans = experiment: Planktonic MIC, CLSI guidelines; assay type: cell-based, Candida albicans
Experimental: as §3

P. aeruginosa = experiment: Antibacterial MIC; assay type: cell-based, Pseudomonas aeruginosa
A. terreus = experiment: Planktonic MIC, CLSI guidelines; assay type: cell-based; conditions: Aspergillus terreus; strain CFF S023
C. glabrata = experiment: Planktonic MIC, CLSI guidelines; assay type: cell-based; conditions: Nakaseomyces glabratus; strain KK2001
Experimental: as §3

C. neoformans = experiment: Planktonic MIC, CLSI guidelines; assay type: cell-based; conditions: Cryptococcus neoformans
Experimental: as §3

F. oxysporum = experiment: Planktonic MIC, CLSI guidelines; assay type: cell-based; conditions: Fusarium oxysporum; strain DUMC Fo
Experimental: as §3

A. fumigatus = experiment: Planktonic MIC, CLSI guidelines; assay type: cell-based; conditions: Aspergillus fumigatus, read-out: MIC
Experimental: as §3

Nc1cc[n+](CC(=O)c2ccc3c(c2)OC(c2ccccc2)(c2ccccc2)O3)cc1.[Cl-] [Compound A]
red blood cell lysis LD50 (red blood cells): 26.9 µg/mL | MIC (S. aureus): 32 µg/mL | IC50 ([1]; Candida albicans, SC5314, established 24 h biofilm, treated 24 h, XTT, read-out: biofilm metabolic activity IC50): 18.4 µg/mL | reduction of biofilm activity relative to planktonic growth ([1]; IC50 versus planktonic MIC): 4 fold | LD50, cell lysis assay (HepG2 cells; HepG2, LDH release, 24 h): 9 µg/mL | LD50, metabolic activity assay (HepG2 cells; HepG2, XTT, 24 h): 20 µg/mL | LD50, toxicity against human cell lines (HepG2 cells; readout not given): 9 µg/mL | MIC (C. auris; strain 0381, drug susceptible): 8 µg/mL | MIC (C. auris; strain 0390, multi-drug resistant): 2 µg/mL | activity during planktonic and inanimate-substrate biofilm growth (C. auris 0381 biofilms): comparable activity | MIC (C. albicans; Candida albicans, strain SC5314, read-out: MIC): 4 µg/mL | MIC (C. albicans; Candida albicans, strain TWO #15, fluconazole-resistant, read-out: MIC): 4 µg/mL | MIC (C. albicans; strain TWO #17, fluconazole-resistant): 4 µg/mL | activity compared to cetylpyridinium chloride (P. aeruginosa; P. aeruginosa): more active | MIC (P. aeruginosa; Pseudomonas aeruginosa, strain PAO1): 64 µg/mL | MIC (A. terreus): 2 to 4 µg/mL | MIC (C. glabrata): 4 µg/mL | MIC (C. neoformans; strain DUMC 118.00): 4 µg/mL | MIC (C. neoformans; strain DUMC 122.01): 4 µg/mL | MIC (C. neoformans; strain H99): 4 µg/mL | MIC (F. oxysporum): 16 µg/mL | MIC (A. fumigatus; strain AF293): 2 µg/mL | MIC (A. fumigatus; strain CEA10): 32 µg/mL | MIC (A. fumigatus; strain CFF S001): 64 µg/mL | MIC (A. fumigatus; strain CFF S003): 4 µg/mL | MIC (A. fumigatus; strain CFF S007): 64 µg/mL | MIC (A. fumigatus; strain CFF S008): 64 µg/mL | MIC (A. fumigatus; strain CFF S014): 8 µg/mL | MIC (A. fumigatus; strain CFF S029): 4 µg/mL | MIC (A. fumigatus; strain Cas^R): 32 µg/mL | MIC (A. fumigatus; strain SPF98): 64 µg/mL

Source: patent US20260274828A1, “BROAD SPECTRUM ANTIFUNGAL KETO-ALKYL-PYRIDINIUM COMPOUNDS” (priority 2023, published 2026)
